From patent US20260092054A1, “FUSED RING COMPOUND AND PHARMACEUTICAL CONTAINING SAME” (KAKEN PHARMACEUTICAL CO., LTD., priority 2022, published 2026)

Tests used:
[1] = tested on: human STAT6; assay: Human STAT6 dependent reporter activity (IL-4 stimulated STAT6 reporter assay using STAT6-HEK293 cells); assay type: cell-based; settings: Homo sapiens, IL-4 stimulation, luciferase activity, read-out: Inhibition rate (%); for inhibition at 0.1 µM: compound 0.1 μmol/L; for inhibition at 1 µM: compound 1 μmol/L
[2] = biological target: T1, human STAT6/pIL-4Rα (Homo sapiens, UniProt P42226); assay: Binding inhibitory activity between human STAT6/pIL-4Rα by fluorescence polarization method; settings: rhSTAT6 (123-658) / FAM-pIL-4Rα peptide
T1 construct: histidine tag
T1 sequence (P42226 123-658): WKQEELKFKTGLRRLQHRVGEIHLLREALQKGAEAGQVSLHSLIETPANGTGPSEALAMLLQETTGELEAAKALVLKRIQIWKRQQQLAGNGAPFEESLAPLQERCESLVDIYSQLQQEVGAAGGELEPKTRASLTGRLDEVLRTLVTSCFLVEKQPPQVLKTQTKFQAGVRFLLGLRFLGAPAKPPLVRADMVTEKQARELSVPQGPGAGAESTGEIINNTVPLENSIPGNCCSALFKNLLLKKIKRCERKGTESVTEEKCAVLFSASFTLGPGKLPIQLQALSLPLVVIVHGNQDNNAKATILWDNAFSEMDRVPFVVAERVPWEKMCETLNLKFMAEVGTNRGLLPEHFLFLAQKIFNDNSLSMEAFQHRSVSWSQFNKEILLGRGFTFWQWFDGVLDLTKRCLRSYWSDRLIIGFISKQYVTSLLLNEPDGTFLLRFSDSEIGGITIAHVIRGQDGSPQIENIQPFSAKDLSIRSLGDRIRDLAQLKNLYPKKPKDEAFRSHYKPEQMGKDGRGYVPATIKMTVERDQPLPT
How it was run: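 His-tagged human STAT6 (residues 123–658, E. coli-expressed) was preincubated with compound for 30 min at RT in the dark, in buffer e.g. 50 mM NaCl, 10 mM HEPES pH 7.0, 1 mM DTT, 1 mM EDTA, 0.01% NP-40. FAM-pIL-4Rα peptide was then added for 30 min. Fluorescence polarisation was read at 485/535 nm, with IC50 interpolated linearly between two points flanking 50%.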

IC50 [2] | SMILES | inhibition at 0.1 µM [1] | inhibition at 1 µM [1]
340 nM | COCCn1c(-c2ccc(-n3c(C)nn(C)c3=O)cc2)cc2cc(C(F)(F)F)cc(C(=O)Nc3cccc(OC)n3)c21 [Ex. 78] | 89% | 100%
400 nM | COCCn1c(-c2ccc(-n3c(C)nn(C)c3=O)cc2)cc2cc(C(F)(F)F)cc(C(=O)Nc3ccnn3C)c21 [Ex. 80] | 4% | 61%
370 nM | CCn1c(-c2ccc(-n3c(C)nn(C)c3=O)cc2)cc2cc(C(F)(F)F)nc(C(=O)Nc3cccc(C(N)=O)c3F)c21 [Ex. 83] | 68% | 98%
240 nM | COCCn1c(-c2ccc(-n3c(C)nn(C)c3=O)cc2)cc2cc(C(F)(F)F)cc(C(=O)Nc3nnc(C)s3)c21 [Ex. 84] | 93% | 100%
340 nM | COCCn1c(-c2ccc(-n3c(C)nn(C)c3=O)cc2)cc2cc(C(F)(F)F)cc(C(=O)Nc3nccs3)c21 [Ex. 85] | 11% | 73%
420 nM | COCCn1c(-c2ccc(-n3c(C)nn(C)c3=O)cc2)cc2cc(C(F)(F)F)cc(C(=O)Nc3ccnnc3)c21 [Ex. 88] | 9% | 76%
280 nM | COCCn1c(-c2ccc(-n3c(C)nn(C)c3=O)cc2)cc2cc(C(F)(F)F)nc(C(=O)Nc3ccc(F)c(C(N)=O)c3)c21 [Ex. 90] | 63% | 99%
250 nM | COCCn1c(-c2ccc(-n3c(C)nn(C)c3=O)cc2)cc2cc(C(F)(F)F)nc(C(=O)Nc3cccc(C(N)=O)c3)c21 [Ex. 91] | 67% | 99%
230 nM | Cc1nn(C)c(=O)n1-c1ccc(-c2cc3cc(C(F)(F)F)nc(C(=O)Nc4ccc(F)c(C(N)=O)c4)c3n2C)cc1 [Ex. 92] | 74% | 99%
280 nM | Cc1nn(C)c(=O)n1-c1ccc(-c2cc3cc(C(F)(F)F)nc(C(=O)Nc4cccc(C(N)=O)c4)c3n2C)cc1 [Ex. 93] | 67% | 96%
310 nM | Cc1nn(C)c(=O)n1-c1ccc(-c2cc3cc(C(F)(F)F)nc(C(=O)Nc4cccc(C(N)=O)c4F)c3n2C)cc1 [Ex. 94] | 79% | –
280 nM | COCCn1c(-c2ccc(-n3c(C)nn(C)c3=O)cc2)cc2cc(C(F)(F)F)cc(C(=O)Nc3cccc(N)n3)c21 [Ex. 95] | 74% | –
290 nM | COCCn1c(-c2ccc(-n3c(C)nn(C)c3=O)cc2)cc2cc(C(F)(F)F)nc(C(=O)Nc3cccc(C(N)=O)c3F)c21 [Ex. 97] | 89% | –
310 nM | CCn1c(-c2ccc(-n3c(C)nn(C)c3=O)cc2F)cc2ccnc(C(=O)Nc3cccc(C(N)=O)c3F)c21 [Ex. 98] | 60% | 100%
380 nM | CCn1c(-c2ccc(-n3cnn(C)c3=O)cc2)cc2ccnc(C(=O)Nc3cccc(C(N)=O)c3F)c21 [Ex. 99] | 51% | 95%
300 nM | COCCn1c(-c2ccc(-n3c(C)nn(C)c3=O)cc2)cc2cc(C(F)(F)F)cc(C(=O)Nc3cccc(COC)n3)c21 [Ex. 100] | 85% | –
2820 nM | CCn1c(-c2ccc(-n3c(C)nn(C)c3=O)cc2)cc2cc(C(F)(F)F)cc(C(=O)Nc3cccc(OC)n3)c21 [Ex. 102] | – | 60%
290 nM | Cc1nn(C)c(=O)n1-c1ccc(-c2cc3ccnc(C(=O)Nc4cccc(C(N)=O)c4)c3n2C)cc1 [Ex. 107] | 67% | –
460 nM | Cc1nn(C)c(=O)n1-c1ccc(-c2cc3ccnc(C(=O)Nc4ccc(F)c(C(N)=O)c4)c3n2C)cc1 [Ex. 108] | 52% | 97%
430 nM | Cc1nn(C)c(=O)n1-c1ccc(-c2cc3ccnc(C(=O)Nc4cccc(C(N)=O)c4F)c3n2C)cc1 [Ex. 109] | 62% | –
